# Reference: patent publication US20250205259A1, “CLASS OF 7-((FIVE-MEMBERED HETEROCYCLIC)METHYL)-8-CARBOXYLIC ACID-BENZO CYCLIC BORATE DERIVATIVES AND USES THEREOF” (priority 2022, published 2025)
# Read-outs that look alike come from different tables or passages of the source.
# Legend:
# Assay type in all cases: biochemical
# NDM-1 = NDM-1 (Klebsiella pneumoniae, UniProt C7C422); test: Inhibitory activity on MBL, fluorescent substrate FC-5
# NDM-5 = NDM-5 (Klebsiella pneumoniae, UniProt C7C422, M154L/V88L); test: as above
# NDM-5, sequence (C7C422 29-270 V88L/M154L): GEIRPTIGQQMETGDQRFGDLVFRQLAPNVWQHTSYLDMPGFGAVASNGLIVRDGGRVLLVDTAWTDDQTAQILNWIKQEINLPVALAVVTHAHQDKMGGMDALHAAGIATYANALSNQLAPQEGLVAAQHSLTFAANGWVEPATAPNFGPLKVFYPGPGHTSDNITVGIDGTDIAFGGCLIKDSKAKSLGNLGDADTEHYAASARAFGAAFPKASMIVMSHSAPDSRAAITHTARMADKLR
# IMP-1 = IMP-1 (Serratia marcescens, UniProt P52699); test: as above; settings: read-out: Inhibitory activity on MBL IMP-1 (IC50 class)
# IMP-1, sequence (P52699 19-246 limits assumed): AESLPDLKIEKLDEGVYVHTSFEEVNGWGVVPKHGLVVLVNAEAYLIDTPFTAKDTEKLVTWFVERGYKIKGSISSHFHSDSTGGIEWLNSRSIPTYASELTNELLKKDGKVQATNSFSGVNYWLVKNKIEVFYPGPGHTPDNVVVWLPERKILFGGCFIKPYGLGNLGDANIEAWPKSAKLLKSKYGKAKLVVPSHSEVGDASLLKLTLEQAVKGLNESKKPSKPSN
# VIM-1 = VIM-1 (Pseudomonas aeruginosa, UniProt A0A0F7KYQ8); test: as above
# VIM-2 = VIM-2 (Escherichia coli, UniProt Q5U7L7); test: as above; settings: read-out: Inhibitory activity on MBL VIM-2 (IC50 class)
# KPC-2 = KPC-2 (Klebsiella pneumoniae, UniProt Q9F663); test: Inhibitory activity on SBL, fluorescent substrate FC-5; settings: for IC50: read-out: Inhibitory activity on SBL KPC-2 (IC50 class)
# KPC-2, sequence (Q9F663 25-293 limits assumed): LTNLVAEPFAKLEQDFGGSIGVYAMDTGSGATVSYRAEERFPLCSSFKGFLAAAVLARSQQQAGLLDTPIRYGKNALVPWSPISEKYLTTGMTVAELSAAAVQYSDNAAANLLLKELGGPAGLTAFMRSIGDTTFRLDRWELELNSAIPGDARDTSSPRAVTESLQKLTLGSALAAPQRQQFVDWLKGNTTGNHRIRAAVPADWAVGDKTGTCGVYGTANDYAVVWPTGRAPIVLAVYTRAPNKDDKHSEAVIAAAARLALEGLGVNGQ
# TEM-1 = TEM-1 (Escherichia coli, UniProt P62593); test: as above; settings: for IC50: read-out: Inhibitory activity on SBL TEM-1 (IC50 class)
# TEM-1, sequence (P62593 24-286 limits assumed): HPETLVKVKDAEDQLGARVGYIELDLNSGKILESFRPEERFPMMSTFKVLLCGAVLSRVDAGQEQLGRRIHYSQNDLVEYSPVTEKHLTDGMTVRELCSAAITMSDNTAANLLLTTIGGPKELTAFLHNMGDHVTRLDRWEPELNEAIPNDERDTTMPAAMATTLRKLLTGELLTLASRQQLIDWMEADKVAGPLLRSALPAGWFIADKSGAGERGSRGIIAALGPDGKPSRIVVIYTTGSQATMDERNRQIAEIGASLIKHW
# SHV-12 = biological target: T1, SHV-12 (UniProt P0AD64, L31Q/G234S/E235K, species not given); test: as above; settings: for IC50: read-out: Inhibitory activity on SBL SHV-12 (IC50 class); for inhibitory activity on SHV-12 compared to control drugs: comparison in words
# T1 sequence (P0AD64 1-286 L31Q/G234S/E235K): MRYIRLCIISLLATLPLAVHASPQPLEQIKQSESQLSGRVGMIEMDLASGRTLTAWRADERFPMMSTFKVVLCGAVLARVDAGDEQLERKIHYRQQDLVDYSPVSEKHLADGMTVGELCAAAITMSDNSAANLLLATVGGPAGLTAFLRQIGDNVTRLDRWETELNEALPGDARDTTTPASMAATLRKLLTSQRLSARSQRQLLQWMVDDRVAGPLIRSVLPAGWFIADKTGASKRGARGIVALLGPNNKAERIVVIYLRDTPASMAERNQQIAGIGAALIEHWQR
# CTX-M-14 = CTX-M-14 (Escherichia coli, UniProt Q9L5C7); test: as above; settings: for IC50: read-out: Inhibitory activity on SBL CTX-M-14 (IC50 class)
# CTX-M-14, sequence (Q9L5C7 entry or part of it): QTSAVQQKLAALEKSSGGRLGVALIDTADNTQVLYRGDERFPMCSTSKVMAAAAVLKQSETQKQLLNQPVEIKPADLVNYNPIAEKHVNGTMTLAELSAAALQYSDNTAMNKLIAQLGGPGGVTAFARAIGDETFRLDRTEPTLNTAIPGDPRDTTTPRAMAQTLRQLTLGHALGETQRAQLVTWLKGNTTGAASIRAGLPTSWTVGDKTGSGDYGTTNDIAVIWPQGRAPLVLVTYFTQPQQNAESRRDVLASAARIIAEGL
# OXA-48 = OXA-48 (Klebsiella pneumoniae, UniProt Q6XEC0); test: as above; settings: for IC50: read-out: Inhibitory activity on SBL OXA-48 (IC50 class)
# OXA-48, sequence (Q6XEC0 23-265 limits assumed): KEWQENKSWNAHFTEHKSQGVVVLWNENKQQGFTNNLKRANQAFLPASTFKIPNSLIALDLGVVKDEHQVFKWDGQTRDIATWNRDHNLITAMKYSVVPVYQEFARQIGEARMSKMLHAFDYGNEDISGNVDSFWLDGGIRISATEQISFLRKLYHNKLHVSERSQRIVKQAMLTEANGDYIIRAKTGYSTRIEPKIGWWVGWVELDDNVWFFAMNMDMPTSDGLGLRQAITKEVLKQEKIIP
# [1] = read-out: Inhibitory activity on MBL NDM-1 (IC50 class)
# [2] = read-out: inhibitory activity at a nanomolar-level on NDM-1
# [3] = read-out: Inhibitory activity on MBL NDM-5 (IC50 class)
# [4] = read-out: inhibitory activity at a nanomolar-level on NDM-5
# [5] = VIM-1 and/or VIM-2, read-out: inhibitory activity at a nanomolar-level on VIM-1 and/or VIM-2
# [6] = read-out: Inhibitory activity on MBL VIM-1 (IC50 class)
# NDM-1, sequence (C7C422 29-270 limits assumed): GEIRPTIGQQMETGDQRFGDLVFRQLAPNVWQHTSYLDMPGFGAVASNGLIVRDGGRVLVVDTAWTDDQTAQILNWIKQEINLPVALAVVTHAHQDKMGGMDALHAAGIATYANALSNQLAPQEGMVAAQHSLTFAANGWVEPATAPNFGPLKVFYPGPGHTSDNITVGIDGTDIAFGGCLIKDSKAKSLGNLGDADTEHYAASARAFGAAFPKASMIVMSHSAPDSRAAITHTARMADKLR
SMILES,IC50 (NDM-1; [1]),IC50 (NDM-1; [2]),IC50 (NDM-5; [3]),IC50 (NDM-5; [4]),IC50 (IMP-1),IC50 (VIM-1; [5]),IC50 (VIM-1; [6]),IC50 (VIM-2),IC50 (KPC-2),IC50 (TEM-1),IC50 (SHV-12),IC50 (CTX-M-14),IC50 (OXA-48),inhibitory activity on SHV-12 compared to control drugs (SHV-12),inhibitory activity on KPC-2 compared to avibactam (KPC-2; comparison in words),inhibitory activity on TEM-1 compared to avibactam (TEM-1; comparison in words),inhibitory activity on CTX-M-14 compared to avibactam (CTX-M-14; comparison in words),inhibitory activity on OXA-48 compared to avibactam (OXA-48; comparison in words)
O=C(O)c1c(Cn2cc(C(F)(F)F)cn2)ccc2c1OB(O)CC2 [Compound 16],0.01 to 1 µM,< 1 µM,0.01 to 1 µM,< 1 µM,1 to 100 µM,< 1 µM,1 to 100 µM,0.01 to 1 µM,< 0.01 µM,0.01 to 1 µM,0.01 to 1 µM,< 0.01 µM,< 0.01 µM,–,–,–,–,–
O=C(O)c1c(Cn2nccn2)ccc2c1OB(O)CC2 [Compound 1],0.01 to 1 µM,< 1 µM,0.01 to 1 µM,< 1 µM,1 to 100 µM,< 1 µM,1 to 100 µM,0.01 to 1 µM,< 0.01 µM,0.01 to 1 µM,0.01 to 1 µM,0.01 to 1 µM,< 0.01 µM,–,–,–,–,–
O=C(O)c1c(Cn2cc3c(n2)CNC3)ccc2c1OB(O)[C@@H]1C[C@H]21 [Compound 53],0.01 to 1 µM,< 1 µM,0.01 to 1 µM,< 1 µM,1 to 100 µM,–,1 to 100 µM,0.01 to 1 µM,< 0.01 µM,0.01 to 1 µM,0.01 to 1 µM,0.01 to 1 µM,< 0.01 µM,–,–,–,–,–
NS(=O)(=O)NCc1cnn(Cc2ccc3c(c2C(=O)O)OB(O)CC3)c1 [Compound 36],0.01 to 1 µM,< 1 µM,0.01 to 1 µM,< 1 µM,1 to 100 µM,–,1 to 100 µM,0.01 to 1 µM,< 0.01 µM,< 0.01 µM,0.01 to 1 µM,0.01 to 1 µM,< 0.01 µM,–,–,–,–,–
N#Cc1ccn(Cc2ccc3c(c2C(=O)O)OB(O)CC3)c1 [Compound 71],0.01 to 1 µM,< 1 µM,0.01 to 1 µM,< 1 µM,0.01 to 1 µM,< 1 µM,0.01 to 1 µM,0.01 to 1 µM,< 0.01 µM,< 0.01 µM,< 0.01 µM,0.01 to 1 µM,0.01 to 1 µM,comparable to avibactam and tazobactam and superior to taniborbactam,–,–,–,–
N=C(N)NCCCc1cn(Cc2ccc3c(c2C(=O)O)OB(O)CC3)nn1 [Compound 48],1 to 100 µM,–,0.01 to 1 µM,–,1 to 100 µM,–,1 to 100 µM,0.01 to 1 µM,< 0.01 µM,0.01 to 1 µM,0.01 to 1 µM,0.01 to 1 µM,0.01 to 1 µM,–,–,–,–,–
O=C(O)c1c(Cn2cc([N+](=O)[O-])cn2)ccc2c1OB(O)CC2 [Compound 31],0.01 to 1 µM,< 1 µM,0.01 to 1 µM,< 1 µM,1 to 100 µM,–,1 to 100 µM,0.01 to 1 µM,< 0.01 µM,0.01 to 1 µM,0.01 to 1 µM,0.01 to 1 µM,< 0.01 µM,–,–,–,–,–
NC1CN(C(=O)c2cnn(Cc3ccc4c(c3C(=O)O)OB(O)CC4)c2)C1 [Compound 72],0.01 to 1 µM,< 1 µM,0.01 to 1 µM,< 1 µM,0.01 to 1 µM,< 1 µM,0.01 to 1 µM,0.01 to 1 µM,< 0.01 µM,< 0.01 µM,< 0.01 µM,0.01 to 1 µM,0.01 to 1 µM,comparable to avibactam and tazobactam and superior to taniborbactam,–,–,–,–
NC(=O)c1cnn(Cc2ccc3c(c2C(=O)O)OB(O)CC3)c1 [Compound 19],0.01 to 1 µM,< 1 µM,0.01 to 1 µM,< 1 µM,1 to 100 µM,< 1 µM,0.01 to 1 µM,0.01 to 1 µM,< 0.01 µM,< 0.01 µM,0.01 to 1 µM,0.01 to 1 µM,< 0.01 µM,–,better or comparable,better or comparable,better or comparable,better or comparable
